# Reference: patent US6894049B1, “Platinum complexes as antitumor agents” (AnorMED, Inc., priority 2000, dated 2005)
# Like-named read-outs stand apart in the source and are kept apart here.
# Legend:
# [1] = tested on: 41M; test: Cell proliferation, human cancer cell line 41M; assay type: cell-based; conditions: read-out: concentration necessary to achieve a 50% decrease in cell proliferation
# Method: (§1) The complexes of the invention were tested against human cancer cell lines grown in cell culture according to established testing procedures (described by Holford, et al., British J. Cancer 1998 77(3) 366-373). The results are given in concentrations (μM) necessary to achieve a 50% decrease in cell proliferation, with resistance factors in brackets for the cisplatin-resistant cell lines.
# [2] = tested on: CH1; test: Cell proliferation, human cancer cell line CH1; assay type: cell-based; conditions: read-out: concentration necessary to achieve a 50% decrease in cell proliferation
# Method: as §1
# [3] = tested on: 41MR; test: Cell proliferation, cisplatin-resistant human cancer cell line 41MR; assay type: cell-based; conditions: for resistance factor: 41MR/41M, in brackets; for IC50: 41MR, read-out: concentration necessary to achieve a 50% decrease in cell proliferation
# Method: as §1
# [4] = tested on: A2780R; test: Cell proliferation, cisplatin-resistant human cancer cell line A2780R; assay type: cell-based; conditions: for resistance factor: A2780R/A2780, in brackets; for IC50: A2780R, read-out: concentration necessary to achieve a 50% decrease in cell proliferation
# Method: as §1
# [5] = tested on: CH1R; test: Cell proliferation, cisplatin-resistant human cancer cell line CH1R; assay type: cell-based; conditions: for resistance factor: CH1R/CH1, in brackets; for IC50: CH1R, read-out: concentration necessary to achieve a 50% decrease in cell proliferation
# Method: as §1
# [6] = tested on: A2780; test: Cell proliferation, human cancer cell line A2780; assay type: cell-based; conditions: read-out: concentration necessary to achieve a 50% decrease in cell proliferation
# Method: as §1
# [7] = Maximum tolerated dose in mice; assay type: in vivo
# [8] = Aqueous solubility at ambient conditions; assay type: physicochemical
# [9] = background statement; cited from earlier work
Compound,IC50 [1],IC50 [2],resistance factor [3],IC50 [3],resistance factor [4],IC50 [4],resistance factor [5],IC50 [5],IC50 [6],maximum tolerated dose (MTD) [7],Aqueous Solubility [8],Aqueous Solubility [9],"decrease in resistance factor ([4]; A2780/A2780R, compared to cis-ammine(2-methylpyridine)dichloroplatinum(II))"
Cc1n(C)cc[n+]1[Pt-2]([NH3+])([Cl])[Cl] [Example 7],9.3 µM,8.3 µM,1.6,15 µM,2.5,17.5 µM,1.4,12 µM,7.1 µM,–,–,–,–
"N.N.[Cl][Pt][Cl] [cisplatin, [PtCl2(NH3)2], reference compound]",0.26 µM,0.11 µM,4.6,1.2 µM,–,5.2 µM,6.5,0.71 µM,0.33 µM,11.3 mg/kg,–,–,–
Cn1cc[n+]([Pt-2]([NH3+])([Cl])[Cl])c1 [Example 3],7.4 µM,7.6 µM,1.7,12.5 µM,2.6,16.5 µM,1.4,10.5 µM,6.4 µM,–,–,–,–
"Cc1cc(C)[n+]([Pt-2]([NH3+])([OH])([OH])([Cl])[Cl])[nH]1 [Example 11, (OC-6-43)amminedichlorodihydroxo-(3.5-dimethylpyrazole)platinum(IV)]",11 µM,2 µM,–,8.2 µM,5.1,37 µM,2.5,5 µM,7.2 µM,–,–,–,–
Cc1cc(C)[n+]([Pt-2]([NH3+])([Cl])[Cl])o1 [Example 4],8 µM,3.2 µM,–,6 µM,6.4,23.5 µM,2.5,8 µM,3.7 µM,–,1270 µg/mL,–,–
"CC(=O)[O][Pt]([NH2])([Cl])([Cl])([NH]C1CCCCC1)[O]C(C)=O [bis-acetato-ammine(cyclohexylamine)dichloroplatinum(IV), reference compound]",0.5 µM,–,1.2,0.6 µM,4.6,1.84 µM,4,0.4 µM,0.4 µM,–,<1000 µg/mL,–,–
"CCCC(=O)[O][Pt]([NH2])([Cl])([Cl])([NH]C1CCCCC1)[O]C(=O)CCC [bis-butyrato-ammine(cyclohexylamine)dichloroplatinum(IV), reference compound]",0.072 µM,0.0066 µM,0.67,0.048 µM,–,–,3.7,0.024 µM,–,–,–,–,–
"[NH2][Pt]1([NH2])[O]C(=O)C2(CCC2)C(=O)[O]1 [carboplatin, diammine[1,1-cyclobutanedicarboxylato (2-)]-O,O′-platinum(II), reference compound]",3.3 µM,1.3 µM,2.7,8.8 µM,–,25.9 µM,4.5,6 µM,1.8 µM,–,–,14000 µg/mL,–
"Cc1cc(C)[n+]([Pt-2]([NH3+])([Cl])[Cl])[nH]1 [Example 1, (SP-4-3)-amminedichloro(3.5-dimethylpyrazole)platinum(II)]",3.5 µM,2.05 µM,1.3,4.5 µM,3.4,9.2 µM,1.9,3.8 µM,2.7 µM,–,–,–,–
cis-ammine(2-methylpyridine)dichloroplatinum(II) [reference compound],5.6 µM,2.2 µM,1.1,6 µM,4.8,12 µM,1,2.1 µM,2.5 µM,–,–,–,–
Cc1oc(C)[n+]([Pt-2]([NH3+])([Cl])[Cl])c1C [Example 10],11.8 µM,5.2 µM,–,11.5 µM,4.1,40 µM,1.8,9.4 µM,9.8 µM,–,–,–,–
"Cc1cc(C)[n+]([Pt-2]([NH3+])([Cl])[Cl])n1C [Example 2, (SP-4-3)-amminedichloro(1,3,5-trimethylpyrazole)platinum(II)]",8.5 µM,9.2 µM,1.8,15.5 µM,1.8,15.5 µM,1.2,11 µM,8.5 µM,greater than 50 mg/Kg,–,–,2.6 fold
Cc1c[n+]([Pt-2]([NH3+])([OH])([OH])([Cl])[Cl])c(C)[nH]1 [Example 16],19 µM,10 µM,1.5,28 µM,> 8,> 100 µM,2.1,21 µM,12.5 µM,–,–,–,–
Cc1n(C)cc[n+]1[Pt-2]([NH3+])([OH])([OH])([Cl])[Cl] [Example 15],23 µM,12 µM,0.9,21 µM,> 7.4,> 100 µM,1.4,16.5 µM,13.5 µM,–,–,–,–
"Cn1cc[n+]([Pt-2]([NH3+])([OH])([OH])([Cl])[Cl])c1 [Example 12, (OC-6-43)-amminedichlorodihydroxo-(1-methylimidazole)platinum(IV)]",23.5 µM,13 µM,1.9,45 µM,4.5,77 µM,1.9,24.5 µM,17 µM,–,–,–,–
Cc1[nH]cc[n+]1[Pt-2]([NH3+])([Cl])[Cl] [Example 8],21 µM,5.2 µM,0.8,16.5 µM,–,–,2.5,12.5 µM,–,–,–,–,–
Cc1c[n+]([Pt-2]([NH3+])([Cl])[Cl])c(C)cn1 [Example 5],11.5 µM,5 µM,–,9 µM,5.8,35 µM,1.6,8 µM,6 µM,–,–,–,–
Cc1ncc[n+]([Pt-2]([NH3+])([Cl])[Cl])c1C [Example 6],6.6 µM,3.2 µM,–,6.5 µM,5.1,17.5 µM,1.7,5.4 µM,3.4 µM,–,–,–,–
"CC(=O)[O][Pt-2]([NH3+])([Cl])([Cl])([O]C(C)=O)[n+]1ccnc(C)c1C [Example 14, (OC-6-43)-amminedichlorodiacetato-(2,3-dimethylpyrazine)platinum(IV)]",29 µM,9.4 µM,1.2,36 µM,–,–,3.2,30 µM,–,–,–,–,–
